# Test results from the kinase profiling compilation of Christmann-Franck et al. (2016).
# Experiments:
# Assay in all cases: KINOMEscan competition binding
# Conditions in all cases: compound 10.0 µM
# PAK6 (human) = PAK6 (human) (UniProt Q9NQU5)
# MAP3K1 (human) = MAP3K1 (human) (UniProt Q13233)
# MARK3 (human) = MARK3 (human) (UniProt P27448)
# STK4 (human) = STK4 (human) (UniProt Q13043)
# MYLK3 (human) = MYLK3 (human) (UniProt Q32MK0)
# PIK3CB (human) = PIK3CB (human) (UniProt P42338)
# STK17B (human) = STK17B (human) (UniProt O94768)
# EPHA6 (human) = EPHA6 (human) (UniProt Q9UF33)
# DCLK1 (human) = DCLK1 (human) (UniProt O15075)
# [1] = system: PIK3CA (human), P42336 [H1047Y]
# CDK8 (human) = CDK8 (human) (UniProt P49336)
# SIK3 (human) = SIK3 (human) (UniProt Q9Y2K2)
# [2] = system: PIK3CA (human), P42336 [E545A]
# ACVR2B (human) = ACVR2B (human) (UniProt Q13705)
# PIK3C2B (human) = PIK3C2B (human) (UniProt O00750)
# NEK7 (human) = NEK7 (human) (UniProt Q8TDX7)
# RAF1 (human) = RAF1 (human) (UniProt P04049)
# RIOK2 (human) = RIOK2 (human) (UniProt Q9BVS4)
# RIPK2 (human) = RIPK2 (human) (UniProt O43353)
# TYRO3 (human) = TYRO3 (human) (UniProt Q06418)
# [3] = target: JAK2 JH1 catalytic (human) (UniProt O60674)
# [4] = system: PIK3CA (human), P42336 [Q546K]
# MAP4K1 (human) = MAP4K1 (human) (UniProt Q92918)
# [5] = system: KIT (human), P10721 [D816V]
# IGF1R (human) = IGF1R (human) (UniProt P08069)
# TXK (human) = TXK (human) (UniProt P42681)
# PAK4 (human) = PAK4 (human) (UniProt O96013)
# FER (human) = FER (human) (UniProt P16591)
# PLK4 (human) = PLK4 (human) (UniProt O00444)
# YSK4 (human) = YSK4 (human) (UniProt Q56UN5)
# CASK (human) = CASK (human) (UniProt O14936)
# MAP2K6 (human) = MAP2K6 (human) (UniProt P52564)
# HIPK2 (human) = HIPK2 (human) (UniProt Q9H2X6)
# FGFR1 (human) = FGFR1 (human) (UniProt P11362)
# ACVR1 (human) = ACVR1 (human) (UniProt Q04771)
# DMPK (human) = DMPK (human) (UniProt Q09013)
# RPS6KA4 KD1 (human) = RPS6KA4 KD1 (human) (UniProt O75676)
# STK24 (human) = STK24 (human) (UniProt Q9Y6E0)
# MLTK (human) = MLTK (human) (UniProt Q9NYL2)
# EPHA4 (human) = EPHA4 (human) (UniProt P54764)
# Sequence of MARK3 (human) (P27448 whole entry, looked up): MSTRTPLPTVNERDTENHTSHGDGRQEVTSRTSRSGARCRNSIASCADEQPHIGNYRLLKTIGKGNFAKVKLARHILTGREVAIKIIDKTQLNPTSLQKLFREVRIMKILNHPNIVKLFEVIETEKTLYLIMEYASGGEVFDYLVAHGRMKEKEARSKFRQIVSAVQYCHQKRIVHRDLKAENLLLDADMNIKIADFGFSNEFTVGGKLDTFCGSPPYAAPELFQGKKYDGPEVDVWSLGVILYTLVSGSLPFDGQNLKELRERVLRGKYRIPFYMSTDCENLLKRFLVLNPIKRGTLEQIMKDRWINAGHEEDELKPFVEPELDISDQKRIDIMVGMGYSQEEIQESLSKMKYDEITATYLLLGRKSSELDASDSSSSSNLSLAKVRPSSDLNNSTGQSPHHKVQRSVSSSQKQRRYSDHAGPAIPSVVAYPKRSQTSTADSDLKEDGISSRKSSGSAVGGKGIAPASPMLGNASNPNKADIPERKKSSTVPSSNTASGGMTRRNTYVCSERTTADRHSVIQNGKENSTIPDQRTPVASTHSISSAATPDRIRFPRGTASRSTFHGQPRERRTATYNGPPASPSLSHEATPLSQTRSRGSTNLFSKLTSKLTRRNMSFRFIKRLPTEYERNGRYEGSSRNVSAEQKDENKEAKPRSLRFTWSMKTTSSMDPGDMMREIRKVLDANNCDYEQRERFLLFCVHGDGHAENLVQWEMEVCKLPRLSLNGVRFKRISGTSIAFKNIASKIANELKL
# Sequence of STK17B (human) (O94768 whole entry, looked up): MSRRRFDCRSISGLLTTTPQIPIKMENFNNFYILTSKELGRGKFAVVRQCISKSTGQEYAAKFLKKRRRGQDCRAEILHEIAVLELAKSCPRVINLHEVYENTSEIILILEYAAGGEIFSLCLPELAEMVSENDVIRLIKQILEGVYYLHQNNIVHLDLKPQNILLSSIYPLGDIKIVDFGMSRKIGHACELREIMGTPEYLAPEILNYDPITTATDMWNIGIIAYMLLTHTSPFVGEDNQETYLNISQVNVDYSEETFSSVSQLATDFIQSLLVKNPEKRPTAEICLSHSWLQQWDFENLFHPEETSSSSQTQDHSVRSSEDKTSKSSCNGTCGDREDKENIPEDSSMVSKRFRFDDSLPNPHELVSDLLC
# Sequence of PIK3CA (human), P42336 [E545A] (P42336 whole entry E545A, looked up): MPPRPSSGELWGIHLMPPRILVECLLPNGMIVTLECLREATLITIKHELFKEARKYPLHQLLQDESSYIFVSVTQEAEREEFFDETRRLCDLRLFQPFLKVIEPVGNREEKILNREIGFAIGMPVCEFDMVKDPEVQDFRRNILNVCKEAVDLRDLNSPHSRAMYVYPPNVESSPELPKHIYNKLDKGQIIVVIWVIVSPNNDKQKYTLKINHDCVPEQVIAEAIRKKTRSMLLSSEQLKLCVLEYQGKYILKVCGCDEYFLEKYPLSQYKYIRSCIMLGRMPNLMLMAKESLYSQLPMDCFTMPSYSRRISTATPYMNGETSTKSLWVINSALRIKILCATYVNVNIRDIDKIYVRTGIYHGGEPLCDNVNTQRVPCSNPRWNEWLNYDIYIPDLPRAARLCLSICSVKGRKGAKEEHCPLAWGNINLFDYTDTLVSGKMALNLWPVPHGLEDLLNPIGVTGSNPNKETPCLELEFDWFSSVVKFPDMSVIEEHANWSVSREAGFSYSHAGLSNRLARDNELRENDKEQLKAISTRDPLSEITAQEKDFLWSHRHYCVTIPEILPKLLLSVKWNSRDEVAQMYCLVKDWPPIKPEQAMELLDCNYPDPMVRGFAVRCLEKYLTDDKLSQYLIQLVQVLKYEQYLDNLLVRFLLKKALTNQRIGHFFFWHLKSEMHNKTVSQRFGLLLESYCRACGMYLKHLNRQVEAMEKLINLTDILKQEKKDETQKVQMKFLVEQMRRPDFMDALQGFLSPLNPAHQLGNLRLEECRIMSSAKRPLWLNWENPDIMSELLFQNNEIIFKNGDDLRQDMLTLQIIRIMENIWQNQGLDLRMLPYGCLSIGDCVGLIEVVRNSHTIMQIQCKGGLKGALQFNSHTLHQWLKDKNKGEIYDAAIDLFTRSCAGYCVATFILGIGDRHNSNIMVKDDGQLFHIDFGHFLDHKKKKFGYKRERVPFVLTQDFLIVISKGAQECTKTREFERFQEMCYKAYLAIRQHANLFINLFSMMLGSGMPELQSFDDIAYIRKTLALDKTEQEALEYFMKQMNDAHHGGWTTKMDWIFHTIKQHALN
# Sequence of IGF1R (human) (P08069 whole entry, looked up): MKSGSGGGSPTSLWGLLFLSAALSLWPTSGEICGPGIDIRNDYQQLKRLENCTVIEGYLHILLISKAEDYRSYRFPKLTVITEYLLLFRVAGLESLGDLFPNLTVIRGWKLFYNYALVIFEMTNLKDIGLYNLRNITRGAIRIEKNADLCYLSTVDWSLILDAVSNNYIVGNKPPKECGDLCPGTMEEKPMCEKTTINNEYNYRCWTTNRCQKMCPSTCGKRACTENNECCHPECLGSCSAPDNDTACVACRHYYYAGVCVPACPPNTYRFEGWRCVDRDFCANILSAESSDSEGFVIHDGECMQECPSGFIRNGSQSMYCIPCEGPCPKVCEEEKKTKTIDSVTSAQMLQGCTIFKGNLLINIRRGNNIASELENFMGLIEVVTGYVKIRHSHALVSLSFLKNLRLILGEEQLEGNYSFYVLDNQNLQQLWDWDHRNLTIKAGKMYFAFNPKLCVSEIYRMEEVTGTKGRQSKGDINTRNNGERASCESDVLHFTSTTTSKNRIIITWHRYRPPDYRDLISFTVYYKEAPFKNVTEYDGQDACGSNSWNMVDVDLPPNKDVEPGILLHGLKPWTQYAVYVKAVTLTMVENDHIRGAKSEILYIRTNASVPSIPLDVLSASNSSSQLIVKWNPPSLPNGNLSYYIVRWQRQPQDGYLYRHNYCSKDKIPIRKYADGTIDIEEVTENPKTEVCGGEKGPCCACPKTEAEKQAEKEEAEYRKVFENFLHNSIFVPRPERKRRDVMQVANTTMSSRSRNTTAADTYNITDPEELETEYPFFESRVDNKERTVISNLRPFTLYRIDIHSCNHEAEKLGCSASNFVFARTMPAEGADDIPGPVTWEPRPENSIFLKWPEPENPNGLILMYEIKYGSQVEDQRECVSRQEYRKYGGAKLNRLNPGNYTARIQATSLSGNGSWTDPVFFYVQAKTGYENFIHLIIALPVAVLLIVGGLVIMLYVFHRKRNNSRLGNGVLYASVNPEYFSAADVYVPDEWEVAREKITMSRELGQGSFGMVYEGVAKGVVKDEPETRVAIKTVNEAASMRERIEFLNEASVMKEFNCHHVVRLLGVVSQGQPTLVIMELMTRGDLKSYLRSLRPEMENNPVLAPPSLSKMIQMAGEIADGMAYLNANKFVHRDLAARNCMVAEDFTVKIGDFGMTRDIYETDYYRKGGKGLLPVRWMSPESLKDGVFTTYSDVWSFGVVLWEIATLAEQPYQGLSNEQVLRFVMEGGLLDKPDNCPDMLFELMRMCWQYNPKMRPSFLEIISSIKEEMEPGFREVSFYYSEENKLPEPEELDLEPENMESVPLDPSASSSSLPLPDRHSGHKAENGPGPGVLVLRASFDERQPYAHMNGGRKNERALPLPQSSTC
# Sequence of FER (human) (P16591 whole entry, looked up): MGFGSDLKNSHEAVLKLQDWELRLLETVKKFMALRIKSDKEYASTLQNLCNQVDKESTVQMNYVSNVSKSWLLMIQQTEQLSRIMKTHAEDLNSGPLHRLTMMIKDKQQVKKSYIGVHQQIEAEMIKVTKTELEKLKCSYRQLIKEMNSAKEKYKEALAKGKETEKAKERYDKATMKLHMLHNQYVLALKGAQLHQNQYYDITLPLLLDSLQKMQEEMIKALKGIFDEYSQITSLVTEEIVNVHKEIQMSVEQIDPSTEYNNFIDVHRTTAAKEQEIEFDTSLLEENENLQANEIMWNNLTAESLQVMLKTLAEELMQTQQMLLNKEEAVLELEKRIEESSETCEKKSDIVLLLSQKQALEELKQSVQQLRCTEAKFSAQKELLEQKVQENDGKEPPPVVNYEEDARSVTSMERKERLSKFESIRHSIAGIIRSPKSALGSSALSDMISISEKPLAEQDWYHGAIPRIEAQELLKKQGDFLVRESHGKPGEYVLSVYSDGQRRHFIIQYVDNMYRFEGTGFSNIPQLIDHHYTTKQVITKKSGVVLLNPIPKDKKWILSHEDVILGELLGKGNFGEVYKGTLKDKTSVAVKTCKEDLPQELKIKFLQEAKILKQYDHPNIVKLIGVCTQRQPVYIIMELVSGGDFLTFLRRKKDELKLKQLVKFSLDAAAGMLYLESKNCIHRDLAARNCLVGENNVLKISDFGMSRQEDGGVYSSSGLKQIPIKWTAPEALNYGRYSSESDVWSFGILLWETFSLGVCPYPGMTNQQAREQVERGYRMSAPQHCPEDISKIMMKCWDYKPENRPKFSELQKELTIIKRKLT
# Sequence of ACVR2B (human) (Q13705 whole entry, looked up): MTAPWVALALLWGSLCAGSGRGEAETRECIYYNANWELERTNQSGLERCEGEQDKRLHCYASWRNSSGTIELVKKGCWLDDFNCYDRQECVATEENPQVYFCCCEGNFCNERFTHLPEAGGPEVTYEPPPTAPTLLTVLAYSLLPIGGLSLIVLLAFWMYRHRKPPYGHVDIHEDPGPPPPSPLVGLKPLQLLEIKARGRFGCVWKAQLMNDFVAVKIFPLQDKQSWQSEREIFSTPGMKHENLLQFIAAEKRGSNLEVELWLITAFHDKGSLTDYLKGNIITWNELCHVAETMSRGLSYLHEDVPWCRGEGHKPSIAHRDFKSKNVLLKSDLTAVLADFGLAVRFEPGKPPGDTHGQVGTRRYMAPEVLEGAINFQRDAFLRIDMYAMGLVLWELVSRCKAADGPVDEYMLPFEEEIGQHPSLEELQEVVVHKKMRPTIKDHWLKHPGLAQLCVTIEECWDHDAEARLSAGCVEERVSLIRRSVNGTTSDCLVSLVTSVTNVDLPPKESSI
# Sequence of PIK3CA (human), P42336 [H1047Y] (P42336 whole entry H1047Y, looked up): as the sequence (P42336 whole entry E545A, looked up) above, with A545E, H1047Y counted along it
# Sequence of PIK3CA (human), P42336 [Q546K] (P42336 whole entry Q546K, looked up): as the sequence (P42336 whole entry E545A, looked up) above, with A545E, Q546K counted along it
structure (smiles),measurement,setting,value
C=CC(=O)Nc1cccc(Nc2nc(N[C@H]3CC[C@H](N(C)C)CC3)nc3c2ncn3C(C)C)c1,"kinase still bound, per cent of control",PAK6 (human),47%
same,"kinase still bound, per cent of control",MAP3K1 (human),100%
same,"kinase still bound, per cent of control",MARK3 (human),81%
same,"kinase still bound, per cent of control",STK4 (human),78%
same,"kinase still bound, per cent of control",MYLK3 (human),100%
same,"kinase still bound, per cent of control",PIK3CB (human),100%
same,"kinase still bound, per cent of control",STK17B (human),22%
same,"kinase still bound, per cent of control",EPHA6 (human),73%
same,"kinase still bound, per cent of control",DCLK1 (human),30%
same,"kinase still bound, per cent of control",[1],90%
same,"kinase still bound, per cent of control",CDK8 (human),100%
same,"kinase still bound, per cent of control",SIK3 (human),92%
same,"kinase still bound, per cent of control",[2],100%
same,"kinase still bound, per cent of control",ACVR2B (human),91%
same,"kinase still bound, per cent of control",PIK3C2B (human),100%
same,"kinase still bound, per cent of control",NEK7 (human),76%
same,"kinase still bound, per cent of control",RAF1 (human),100%
same,"kinase still bound, per cent of control",RIOK2 (human),66%
same,"kinase still bound, per cent of control",RIPK2 (human),100%
same,"kinase still bound, per cent of control",TYRO3 (human),100%
same,"kinase still bound, per cent of control",[3],9.1%
same,"kinase still bound, per cent of control",[4],100%
same,"kinase still bound, per cent of control",MAP4K1 (human),74%
same,"kinase still bound, per cent of control",[5],10%
same,"kinase still bound, per cent of control",IGF1R (human),87%
same,"kinase still bound, per cent of control",TXK (human),48%
same,"kinase still bound, per cent of control",PAK4 (human),17%
same,"kinase still bound, per cent of control",FER (human),74%
same,"kinase still bound, per cent of control",PLK4 (human),85%
same,"kinase still bound, per cent of control",YSK4 (human),15%
same,"kinase still bound, per cent of control",CASK (human),92%
same,"kinase still bound, per cent of control",MAP2K6 (human),100%
same,"kinase still bound, per cent of control",HIPK2 (human),17%
same,"kinase still bound, per cent of control",FGFR1 (human),76%
same,"kinase still bound, per cent of control",ACVR1 (human),100%
same,"kinase still bound, per cent of control",DMPK (human),8.8%
same,"kinase still bound, per cent of control",RPS6KA4 KD1 (human),59%
same,"kinase still bound, per cent of control",STK24 (human),43%
same,"kinase still bound, per cent of control",MLTK (human),100%
same,"kinase still bound, per cent of control",EPHA4 (human),64%
C[C@@H](Oc1cc(-n2cnc3ccc(CN4CCN(C)CC4)cc32)sc1C(N)=O)c1ccccc1C(F)(F)F,"kinase still bound, per cent of control",PAK6 (human),98%
same,"kinase still bound, per cent of control",MAP3K1 (human),3.7%
same,"kinase still bound, per cent of control",MARK3 (human),63%
same,"kinase still bound, per cent of control",STK4 (human),100%
same,"kinase still bound, per cent of control",MYLK3 (human),100%
same,"kinase still bound, per cent of control",PIK3CB (human),0.8%
same,"kinase still bound, per cent of control",STK17B (human),100%
same,"kinase still bound, per cent of control",EPHA6 (human),92%
same,"kinase still bound, per cent of control",DCLK1 (human),40%
same,"kinase still bound, per cent of control",[1],32%
same,"kinase still bound, per cent of control",CDK8 (human),95%
same,"kinase still bound, per cent of control",SIK3 (human),69%
same,"kinase still bound, per cent of control",[2],40%
same,"kinase still bound, per cent of control",ACVR2B (human),100%
same,"kinase still bound, per cent of control",PIK3C2B (human),14%
same,"kinase still bound, per cent of control",NEK7 (human),66%
same,"kinase still bound, per cent of control",RAF1 (human),100%
same,"kinase still bound, per cent of control",RIOK2 (human),65%
same,"kinase still bound, per cent of control",RIPK2 (human),92%
same,"kinase still bound, per cent of control",TYRO3 (human),100%
same,"kinase still bound, per cent of control",[3],87%
same,"kinase still bound, per cent of control",[4],29%
same,"kinase still bound, per cent of control",MAP4K1 (human),83%
same,"kinase still bound, per cent of control",[5],16%
same,"kinase still bound, per cent of control",IGF1R (human),100%
same,"kinase still bound, per cent of control",TXK (human),71%
same,"kinase still bound, per cent of control",PAK4 (human),37%
same,"kinase still bound, per cent of control",FER (human),100%
same,"kinase still bound, per cent of control",PLK4 (human),97%
same,"kinase still bound, per cent of control",YSK4 (human),12%
same,"kinase still bound, per cent of control",CASK (human),50%
same,"kinase still bound, per cent of control",MAP2K6 (human),98%
same,"kinase still bound, per cent of control",HIPK2 (human),36%
same,"kinase still bound, per cent of control",FGFR1 (human),37%
same,"kinase still bound, per cent of control",ACVR1 (human),100%
same,"kinase still bound, per cent of control",DMPK (human),63%
same,"kinase still bound, per cent of control",RPS6KA4 KD1 (human),68%
same,"kinase still bound, per cent of control",STK24 (human),81%
same,"kinase still bound, per cent of control",MLTK (human),100%
same,"kinase still bound, per cent of control",EPHA4 (human),100%
